According to patent US20240343699A1, “DERIVATIVES OF SUBSTITUTED MORPHOLINES AND USES THEREOF” (Supernus Pharmaceuticals, Inc., priority 2023, published 2024):
Entries after “also recorded” stand apart in the source; their conditions may differ.

Experiments:
[1] = Stability in fluid matrices SGF, SIF and PBS; type: physicochemical; settings: 37° C.
Protocol: Simulated Gastric Fluid (SGF) was prepared with 34.2 mM NaCl, 80 μM sodium taurocholate, 20 μM of L-alpha phosphatidylcholine/lecithin, and 0.1 mg/mL of Pepsin. 1 M HCl was added dropwise to adjust the pH to 1.96. Simulated Intestinal Fluid (SIF) was prepared with sodium phosphate monobasic, 105.9 mM NaCl, […] sodium taurocholate, and […] of L-alpha phosphatidylcholine/lecithin. 1 N NaOH was added dropwise to adjust the pH to 5.98. Phosphate buffered saline (PBS) at pH 6.0 was made by titrating PBS at pH 7.4 with 1 M HCl.
(§1) Stability of Test Articles at Different pH Values. 10 mM stock solutions of COMPOUND A were prepared in DMSO. From this stock solution, a single concentration in a 10 μL aliquot was added to three fluid matrices: SGF at pH 2.0 (gastric), SIF at pH 6.0 (upper intestine), and PBS at 7.4 (systemic). The final volume was 1 mL (0.1 mM). The preparations were then incubated at 37° C. and samples were collected at 0, 15, 30, 60, and 120 min for analysis of parent material by LC/MS/MS. The collected sample was quenched in acetonitrile/0.1% formic acid mixture. Red Blood Cell (RBC): Human and rat blood were centrifuged to separate out red blood cells at […] for 15 min. The upper plasma level was aspirated with a micropipette and placed in a bleach solution for disposal. The RBC pellet was resuspended in sterile isotonic saline. The pellet was gently resuspended by rocking the tube. The sample was then centrifuged again to collect the RBC pellet and then resuspended and washed one more time following the same procedure. A total of three was done. Following the last wash and centrifugation, the RBCs were resuspended with PBS; and mixed by inversion. Aliquots of the resuspended and washed RBCs were then placed into 4 reaction tubes. These tubes were centrifuged to collect the RBCs. The fluid level was marked on each tube, then the supernatant was aspirated off and the cells resuspended with room temperature PBS pH 7.4 to the original mark. An aliquot of the RBC suspension was added to four sterile tubes containing PBS pH 7.4 at room temperature.

[2] = Stability in human whole blood, red blood cells and plasma (with/without protease inhibitors, pH 6.0); type: in vitro ADME
Protocol: as §1
Stability in Human and Rat Red Blood cells and Hemolysis. […] After centrifugation, 70 μL of supernatant (without disturbing the pellet) was transferred to a clean and clear polystyrene flat bottomed 96-well plate and the absorbance of the sample at a single wavelength was measured using a Bio Tech Synergy Hl Plate Reader at a wavelength of 410 nm. […] Stability was measured by measuring loss of parent compound using LC/MS/MS.

[3] = system: anxiety-like behavior; assay: Elevated plus maze (EPM); type: in vivo, male Wistar rats; settings: for Closed arm entries / Closed arm returns / Head dips in open arms / Stretch-attend postures / Time in closed arms / Time in open arms / Total arm entries: mean; for % Time in open arms / Open Arm Entries / Total distance travelled: mean ± S.E.M.
[4] = PK after single PO administration of COMPOUND A
[5] = system: prepulse inhibition; assay: Prepulse inhibition (PPI) of the auditory startle response, apomorphine-impairment model
Protocol: Four standard startle chambers (San Diego Instruments, San Diego, CA) were used. […] The tube is mounted on a plastic frame, under which a piezoelectric accelerometer is mounted, which records and transduces the motion of the tube. Three days before drug testing the experimental subjects were each placed in one of the startle test chambers for a period of 10 minutes (without any startle stimuli) as an initial period of acclimation to the apparatus. Two days before drug testing the animals were again placed in the test chamber and then exposed to 12 startle stimuli and to each prepulse level 3 times (see below). This procedure was done to reduce the highly variable responses to the initial exposures to the startle stimuli as well as to ensure that the prepulse stimuli (alone) had no significant effect on the startle response. One day before drug testing, a full 60 trial PPI test session (as subsequently described for the drug testing experiments, see below) was conducted for all experimental subjects.
On the day of drug testing the rats were transported to the startle chamber room and left undisturbed for at least 30 min. […] After this period, the rats received 12 startle trials, 12 no-stimulus trials, and 12 trials of each of the prepulse/startle trials (see below) for a total of 60 trials. The intertrial interval ranged from 10 to 30 s, and the total session lasted about 25-30 min. The startle trials consisted of single 120 dB white noise bursts lasting 20 ms.
The prepulse inhibition trials consisted of a prepulse (20 ms burst of white noise with intensities of 75, 80, or 85 dB) followed, 100 ms later, by a startle stimulus (120 dB, 20 ms white noise). During the no-stimulus trial, no startle noise was presented, but the movement of the rat was recorded. This represented a control trial for detecting differences in overall activity. The 60 different trials were presented pseudo-randomly, ensuring that each trial was presented 12 times and that no two consecutive trials were identical. The resulting movement of the rat in the startle chamber was measured during 100 ms after startle stimulus onset (sampling frequency 1 kHz), rectified, amplified, and fed into a computer that determined the maximal response that occurred during the 100-ms period. Basal startle amplitude was determined as the mean amplitude of the 12 startle trials. Prepulse inhibition was calculated according to the formula 100−100%×(PPx/P120), in which PPx is the mean of the 12 prepulse inhibition trials (i.e., for each individual prepulse level), and p120 is the basal startle amplitude. The average level of PPI was also calculated (average of the responses to pp75, pp80, or pp85) and analyzed separately.

[6] = 30 mg/kg PO 20 min prior to EPM
[7] = 60 mg/kg PO 20 min prior to EPM
[8] = 120 mg/kg PO 40 min prior to EPM
[9] = COMPOUND C 60 mg/kg PO + apomorphine
[10] = COMPOUND C 90 mg/kg PO + apomorphine
[11] = COMPOUND C 120 mg/kg PO + apomorphine

For CCOc1ccccc1OC[C@@H]1CN(C(=O)OC(C)OC(=O)[C@@H](N)C(C)C)CCO1 (some centres unmarked) [COMPOUND A], the “stability in PBS (amount of parent compound)” value ([1]; PBS pH 7.4, 0.1 mM) was “time-dependent decrease in the amount of parent compound”, the “stability in SGF (LC/MS/MS peak area of parent)” value ([1]; SGF pH 2.0, 0.1 mM, 0-120 min) was “time-dependent decrease in the LC/MS/MS peak area until 20 min” and the “amount of parent compound in SIF” value ([1]; SIF pH 6.0, 0.1 mM, all time points) was 100%. The “stability in human plasma at pH 6.0” value ([2]; 0-30 min) was “slower degradation compared to the other matrices”, the “stability in human plasma with protease inhibitor cocktail” value ([2]; 0-30 min) was “time-dependent decrease in the amount of parent compound present” and the “stability in human red blood cells and whole blood” value ([2]; 0.5 mM, 0-120 min) was “time-dependent decrease in the amount of parent compound present”. For the same molecule, the Closed arm entries [3, 6] was 10.00, the Closed arm returns [3, 6] was 2.00 and the “Head dips in open arms” value [3, 6] was 2.25. The Stretch-attend postures [3, 6] was 18.00, the “Time in closed arms” value [3, 6] was 282.58 s and the “Time in open arms” value [3, 6] was 8.74 s. The Total arm entries [3, 6] was 11.00, the “% Time in open arms” value [3, 6] was 2.91 ± 1.28% and the “Open Arm Entries” value [3, 6] was 1.00 ± 0.33. It also gave a Total distance travelled [3, 6] of 1591.15 ± 73.52 cm, a Closed arm entries [3, 7] of 7.00 and a Closed arm returns [3, 7] of 2.13. The “Head dips in open arms” value [3, 7] was 3.63, the Stretch-attend postures [3, 7] was 18.63 and the “Time in closed arms” value [3, 7] was 281.10 s. For the same molecule, the “Time in open arms” value [3, 7] was 7.25 s, the Total arm entries [3, 7] was 7.63 and the “% Time in open arms” value [3, 7] was 2.42 ± 0.92%. For the same molecule, the “Open Arm Entries” value [3, 7] was 0.63 ± 0.18, the Total distance travelled [3, 7] was 1318.06 ± 39.58 cm and the Closed arm entries [3, 8] was 9.63. For the same molecule, the Closed arm returns [3, 8] was 2.00, the “Head dips in open arms” value [3, 8] was 2.25 and the Stretch-attend postures [3, 8] was 20.38. For the same molecule, the “Time in closed arms” value [3, 8] was 283.06 s, the “Time in open arms” value [3, 8] was 0.85 s and the Total arm entries [3, 8] was 9.88. The “% Time in open arms” value [3, 8] was 0.28 ± 0.19%, the “Open Arm Entries” value [3, 8] was 0.25 ± 0.16 and the Total distance travelled [3, 8] was 1476.54 ± 60.73 cm. For the same molecule, the “total distance traveled vs vehicle” value ([3]; COMPOUND A 60 and 120 mg/kg p.o.) was “travelled a significantly shorter distance”, the “Clinical observation (tolerability)” value ([4]; 60 or 120 mg/kg PO) was “well tolerated” and the “enantiomer R(+)-VLX in plasma” value ([4]; COMPOUND A 60 or 120 mg/kg PO, LLOQ 1.5 ng/mL) was “not detectable at most time points”. For the same molecule, the “plasma concentration of the derivative itself” value ([4]; COMPOUND A 60 or 120 mg/kg PO, LLOQ 3 ng/mL) was “not detectable; also recorded: below LLOQ in all the samples collected”.

With CCOc1ccccc1OC[C@@H]1CN(C(=O)OC(OC(=O)[C@H](N)C(C)C)C(C)C)CCO1 (some centres unmarked) [COMPOUND C] the “% PPI (mean ± SEM)” value [5, 9] was 43.6 ± 5.0%, the “Acoustic Startle (AU) (mean ± SEM)” value [5, 9] was 1719.1 ± 211.2 AU and the “% PPI (mean ± SEM)” value [5, 10] was 37.2 ± 5.6%. For the same molecule, the “Acoustic Startle (AU) (mean ± SEM)” value [5, 10] was 1579.9 ± 171.1 AU, the “% PPI (mean ± SEM)” value [5, 11] was 43.7 ± 3.7% and the “Acoustic Startle (AU) (mean ± SEM)” value [5, 11] was 1856.8 ± 245.8 AU. For the same molecule, the “attenuation of the effects of apomorphine on PPI” value ([5]; COMPOUND C 60, 90, 120 mg/kg PO) was “None of the doses of COMPOUND C were associated with a statistically significant attenuation”.
